According to patent US20190367516A1 (Bayer Pharma Aktiengesellschaft, priority 2015, published 2019):
Where two headings read alike, the source gives them in different places.

Columns and labels:
human M2 receptor [1] = molecular target: T1, human M2 receptor (Homo sapiens, UniProt P08172); assay type: cell-based; settings: α >1 = positive cooperativity
T1 sequence (P08172 1-466): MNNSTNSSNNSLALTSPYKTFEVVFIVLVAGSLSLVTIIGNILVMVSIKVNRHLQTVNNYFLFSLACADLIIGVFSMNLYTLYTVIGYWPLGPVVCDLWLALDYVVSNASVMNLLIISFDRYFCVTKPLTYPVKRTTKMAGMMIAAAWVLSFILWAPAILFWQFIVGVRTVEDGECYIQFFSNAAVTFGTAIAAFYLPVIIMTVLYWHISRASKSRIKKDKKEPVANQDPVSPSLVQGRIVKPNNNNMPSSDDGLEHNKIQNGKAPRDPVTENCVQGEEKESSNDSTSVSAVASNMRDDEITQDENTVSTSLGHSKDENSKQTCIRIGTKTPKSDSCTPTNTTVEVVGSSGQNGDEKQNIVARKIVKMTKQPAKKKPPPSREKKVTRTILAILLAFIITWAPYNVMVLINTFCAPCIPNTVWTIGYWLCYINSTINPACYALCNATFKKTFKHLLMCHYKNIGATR

anaesthetized rats = test: Effects on the heart rate in anaesthetized rats (B-9); assay type: in vivo, rat; settings: i.v. infusion via jugular vein over 5 min, dose not given, in some cases means of several determinations
Protocol: B-9. Effects of the Test Substances on the Heart Rate in Anaesthetized Rats
Male rats of the strain (WI) WU Br from the breeder Charles River are anaesthetized initially with a 4-5% isoflurane inhalation for approx. 3 min. Subsequently, anaesthesia is maintained using a 1.5% isoflurane inhalation. For this purpose, the anaesthetized animals are fixed on a heated operating plate. By means of visual inspection and between toe reflex, the depth of anaesthesia is checked.
For the application of the test substance, an i.v. route into the jugular vein is used. A caudal to cranial skin incision is then made longitudinally and both the cervical musculature and the salivary glands are severed. The right common carotid artery is exposed and blood supply is arrested both proximally and distally. Using microinstrumentation, a TIP catheter (1.2 F) is introduced into the vessel in order to measure the arterial pressure and the heart rate.
Initially, both parameters are monitored for 10 min in the basal state without substance addition. The substances to be investigated are dissolved in suitable solvent mixtures and subsequently administered at various dosages to a group of animals in each case via the jugular vein by an infusion pump over 5 min. A solvent-treated group is used as control under the same experimental conditions. The arterial blood pressure and heart rate with substance addition is determined for 20 min. The data are registered with the PowerLab system (AD instruments) and evaluated using the LabChart program (AD instruments).
The values determined in this manner for the percentage decrease in heart rate for individual working examples are given in Table 4 below (in some cases as means of a plurality of independent individual determinations): […]

human M2 receptor [2] = molecular target: T1, human M2 receptor
[3] = shift of acetylcholine dose-response curve (Allosteric EC50 shift)
[4] = Receptor activity EC50, allosteric potency at EC20 acetylcholine, M2-GIRK1/4 reporter cells, in some cases mean of two or more determinations
[5] = read-out: Efficiency, boosting of the acetylcholine effect at EC20 acetylcholine concentration, M2-GIRK1/4 reporter cells
[6] = shift in the acetylcholine dose-response curve (Allosteric EC50 shift, GraphPad PRISM)
[7] = Receptor activity EC50, M2-GIRK1/4 activation test, acetylcholine at EC20, allosteric potency, in some cases mean values from two or more determinations

Row | Structure (SMILES) | Cooperativity (alpha factor) (human M2 receptor [1]; [3]) | Reduction in heart rate (%) (anaesthetized rats) | EC50 (human M2 receptor [2]; [4]) [nM] | Emax (human M2 receptor [2]; [5]) [%] | Efficiency (human M2 receptor [2]; boosting of the acetylcholine effect at EC20 acetylcholine concentration, M2-GIRK1/4 reporter cells) [%] | Cooperativity (alpha factor) (human M2 receptor [1]; [6]) | EC50 (human M2 receptor [2]; [7]) [nM] | Emax (human M2 receptor [2]; read-out: Efficiency) [%]
1 | CC(C)(CC(F)(F)F)NC(=O)c1cn(-c2c(F)cc(F)cc2F)c2nc(N3C[C@@H](O)CC3=O)ccc2c1=O [Example 511, 7-[(4S)-4-Hydroxy-2-oxopyrrolidin-1-yl]-4-oxo-N-(4,4,4-trifluoro-2-methylbutan-2-yl)-1-(2,4,6-trifluorophenyl)-1,4-dihydro-1,8-naphthyridine-3-carboxamide] | 30 | 10 | 9 | 100 | – | – | – | –
2 | CC(NC(=O)c1cn(-c2c(F)cc(F)cc2F)c2nc(N3CCNC3=O)ccc2c1=O)C(F)(F)C(F)(F)F (racemic) [Example 541, 4-Oxo-7-(2-oxoimidazolidin-1-yl)-N-[3,3,4,4,4-pentafluorobutan-2-yl]-1-(2,4,6-trifluorophenyl)-1,4-dihydro-1,8-naphthyridine-3-carboxamide] | 31 | 14 | 7 | – | 92.2 | – | – | –
3 | CC(C)(CC(F)(F)F)NC(=O)c1cn(-c2c(F)cc(F)cc2F)c2nc(N3C[C@@H](O)[C@H](O)C3)ccc2c1=O [Example 370, 7-[(3R,4R)-3,4-Dihydroxypyrrolidin-1-yl]-4-oxo-N-(4,4,4-trifluoro-2-methylbutan-2-yl)-1-(2,4,6-trifluorophenyl)-1,4-dihydro-1,8-naphthyridine-3-carboxamide] | – | 12 | – | – | – | 32 | 14 | –
4 | CC(NC(=O)c1cn(-c2c(F)cc(F)cc2F)c2nc(N3C[C@@H](O)CC3=O)ccc2c1=O)C(F)(F)C(F)(F)F (single isomer, unassigned) [Example 530] | 44 | 13 | 6 | 98.7 | – | – | – | –
5 | CC[C@@H](NC(=O)c1cn(-c2c(F)cc(F)cc2F)c2nc(N3C[C@@H](O)CC3=O)ccc2c1=O)C(F)(F)F [Example 325, 7-[(4S)-4-Hydroxy-2-oxopyrrolidin-1-yl]-4-oxo-N-[(2R)-1,1,1-trifluorobutan-2-yl]-1-(2,4,6-trifluorophenyl)-1,4-dihydro-1,8-naphthyridine-3-carboxamide] | – | 13 | – | – | – | 56 | 7 | 93
6 | O=C(Nc1c(Cl)cccc1Cl)c1cn(-c2ccc(F)cc2F)c2nc(N3C[C@@H](O)CC3=O)ccc2c1=O [Example 201, N-(2,6-Dichlorophenyl)-1-(2,4-difluorophenyl)-7-[(4S)-4-hydroxy-2-oxopyrrolidin-1-yl]-4-oxo-1,4-dihydro-1,8-naphthyridine-3-carboxamide] | – | 6 | – | – | – | 39 | 39 | –
7 | CC[C@H](NC(=O)c1cn(-c2c(F)cc(F)cc2F)c2nc(N3C[C@@H](O)CC3=O)ccc2c1=O)C(F)(F)F [Example 332, 7-[(4S)-4-Hydroxy-2-oxopyrrolidin-1-yl]-4-oxo-N-[(2S)-1,1,1-trifluorobutan-2-yl]-1-(2,4,6-trifluorophenyl)-1,4-dihydro-1,8-naphthyridine-3-carboxamide] | – | 11 | – | – | – | 37 | 20 | 99.2
8 | CC(C)(C)[C@@H](NC(=O)c1cn(-c2c(F)cc(F)cc2F)c2nc(N3C[C@@H](O)[C@H](O)C3)ccc2c1=O)C(F)(F)F [Example 349, 7-[(3R,4R)-3,4-Dihydroxypyrrolidin-1-yl]-4-oxo-N-[(2R)-1,1,1-trifluoro-3,3-dimethylbutan-2-yl]-1-(2,4,6-trifluorophenyl)-1,4-dihydro-1,8-naphthyridine-3-carboxamide] | – | 14 | – | – | – | 52 | 4 | 100
9 | C[C@H](NC(=O)c1cn(-c2c(F)cc(F)cc2F)c2nc(N3C[C@@H](O)CC3=O)ccc2c1=O)C(F)(F)F [Example 330, 7-[(4S)-4-Hydroxy-2-oxopyrrolidin-1-yl]-4-oxo-1-(2,4,6-trifluorophenyl)-N-[(2S)-1,1,1-trifluoropropan-2-yl]-1,4-dihydro-1,8-naphthyridine-3-carboxamide] | – | 9 | – | – | – | 29 | 41 | –
10 | O=C(N[C@H](C1CC1)C(F)(F)F)c1cn(-c2c(F)cccc2F)c2nc(N3C[C@@H](O)CC3=O)ccc2c1=O (single isomer, unassigned) [Example 296] | – | 11 | – | – | – | 49 | 28 | –
11 | O=C(N[C@@H](C1CC1)C(F)(F)F)c1cn(-c2ccc(F)cc2F)c2nc(N3C[C@@H](O)CC3=O)ccc2c1=O (single isomer, unassigned) [Example 284] | – | 11 | – | – | – | – | 61 | –
12 | CC[C@H](NC(=O)c1cn(-c2ccc(F)cc2F)c2nc(N3C[C@@H](O)CC3=O)ccc2c1=O)C(F)(F)F [Example 174, 1-(2,4-Difluorophenyl)-7-[(4S)-4-hydroxy-2-oxopyrrolidin-yl]-4-oxo-N-[(2S)-1,1,1-trifluorobutan-2-yl]-1,4-dihydro-1,8-naphthyridine-3-carboxamide] | – | 7 | – | – | – | – | 113 | 98.6
13 | CC[C@@H](NC(=O)c1cn(-c2c(F)cc(F)cc2F)c2nc(N3CCC(O)C3=O)ccc2c1=O)C(F)(F)F (mixture of isomers) [Example 280, 7-[3-Hydroxy-2-oxopyrrolidin-1-yl]-4-oxo-N-[(2R)-1,1,1-trifluorobutan-2-yl]-1-(2,4,6-trifluorophenyl)-1,4-dihydro-1,8-naphthyridine-3-carboxamide] | – | – | – | – | – | 24 | 44 | –
14 | O=C(N[C@@H](C1CC1)C(F)(F)F)c1cn(-c2c(F)cc(F)cc2F)c2nc(N3CCCN(CCO)C3=O)ccc2c1=O [Example 364, N-[(1 S)-1-Cyclopropyl-2,2,2-trifluoroethyl]-7-[3-(2-hydroxyethyl)-2-oxotetrahydropyrimidin-1(2H)-yl]-4-oxo-1-(2,4,6-trifluorophenyl)-1,4-dihydro-1,8-naphthyridine-3-carboxamide] | – | – | – | – | – | 25 | 16 | –
15 | CN(C)c1ccc2c(=O)c(C(=O)NC34CC5CC(CC(C5)C3)C4)cn(-c3ccc(F)cc3F)c2n1 [Example 36, 1-(2,4-Difluorophenyl)-7-(dimethylamino)-4-oxo-N-(tricyclo[3.3.1.1^3,7]dec-1-yl)-1,4-dihydro-1,8-naphthyridine-3-carboxamide] | – | – | – | – | – | 16 | 19 | 96.1
16 | CC[C@@H](NC(=O)c1cn(-c2ccc(F)cc2F)c2nc(N3C[C@@H]4C(COC)[C@@H]4C3)ccc2c1=O)C(F)(F)F (stereo partly drawn) [Example 190, 1-(2,4-Difluorophenyl)-7-[(1R,5S)-6-(methoxymethyl)-3-azabicyclo[3.1.0]hex-3-yl]-4-oxo-N-[(2R)-1,1,1-trifluorobutan-2-yl]-1,4-dihydro-1,8-naphthyridine-3-carboxamide] | – | – | – | – | – | 12 | 46 | –
17 | CC[C@@H](NC(=O)c1cn(-c2ccc(F)cc2F)c2nc(N3CCC(C)(OC)C3)ccc2c1=O)C(F)(F)F (mixture of isomers) [Example 191, 1-(2,4-Difluorophenyl)-7-[3-methoxy-3-methylpyrrolidin-1-yl]-4-oxo-N-[(2R)-1,1,1-trifluorobutan-2-yl]-1,4-dihydro-1,8-naphthyridine-3-carboxamide] | – | – | – | – | – | 7 | 60 | –
